Target: T1, recombinant human PAI-1 (Homo sapiens, UniProt P05121)
T1 construct: purchased Molecular Innovations, Inc
Test: Test Example 1: human PAI-1 inhibitory activity (tPA fluorogenic substrate, pH 7.5 Tris buffer)
Assay type: biochemical
Conditions: Tris buffer
Procedure: 50 mM Tris, 150 mM NaCl, 10 μg/ml BSA, 0.01% Tween80 (SIGMA-ALDRICH Corporation)

T1 sequence (P05121 24-402): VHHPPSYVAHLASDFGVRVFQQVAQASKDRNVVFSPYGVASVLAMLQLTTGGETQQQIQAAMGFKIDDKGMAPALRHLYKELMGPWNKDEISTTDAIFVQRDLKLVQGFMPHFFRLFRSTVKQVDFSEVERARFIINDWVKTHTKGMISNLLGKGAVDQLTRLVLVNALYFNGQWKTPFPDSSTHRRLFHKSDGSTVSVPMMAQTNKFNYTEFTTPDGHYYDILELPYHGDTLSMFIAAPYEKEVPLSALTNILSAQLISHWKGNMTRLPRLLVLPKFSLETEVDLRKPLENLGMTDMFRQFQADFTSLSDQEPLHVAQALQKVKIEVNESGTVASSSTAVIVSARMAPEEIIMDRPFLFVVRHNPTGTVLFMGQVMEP

Row | SMILES | Inhibition Rate of PAI-1 Activity (%) (Compound Concentration 5 μM) | Inhibition Rate of PAI-1 Activity (%) (Compound Concentration 10 μM) | Inhibition Rate of PAI-1 Activity (%) (Compound Concentration 25 μM)
1 | O=C(O)C(=O)N(Cc1ccc(F)cc1)c1ccc(-c2ccc(OC(F)(F)F)cc2)cc1 [Compound 155] | 7% | 15% | 38%
2 | CC(C)(C)c1ccc(-c2ccc(N(Cc3ccccc3)C(=O)C(=O)O)cc2)cc1 [Compound 156] | 10% | 25% | 67%
3 | CC(C)(C)c1ccc(N(C(=O)C(=O)O)c2ccccc2-c2ccc(OC(F)(F)F)cc2)cc1 [Compound 157] | 25% | 56% | 96%
4 | CSc1ccc(CN(C(=O)C(=O)O)c2ccc(-c3ccc(OC(F)(F)F)cc3)cc2)cc1 [Compound 160] | 14% | 26% | 68%
5 | O=C(O)C(=O)N(Cc1ccc(-c2ccccc2)cc1)c1ccc(-c2ccc(OC(F)(F)F)cc2)cc1 [Compound 161] | 27% | 62% | >99%
6 | CC(C)(C)c1ccc(CN(C(=O)C(=O)O)c2ccc(-c3ccc(C(C)(C)C)cc3)cc2)cc1 [Compound 163] | 37% | 84% | >99%
7 | CCCCc1ccc(-c2ccc(N(Cc3ccc(C(C)(C)C)cc3)C(=O)C(=O)O)cc2)cc1 [Compound 164] | 40% | 79% | 96%
8 | CCCCc1ccc(CN(C(=O)C(=O)O)c2ccc(-c3ccc(OC(F)(F)F)cc3)cc2)cc1 [Compound 167] | 37% | 75% | 87%
9 | O=C(O)C(=O)N(Cc1c(Cl)cccc1Cl)c1ccc(-c2ccc(OC(F)(F)F)cc2)cc1 [Compound 171] | 22% | 44% | 81%
10 | O=C(O)C(=O)N(Cc1ccccc1)c1c(Cl)cc(-c2ccc(OC(F)(F)F)cc2)cc1Cl [Compound 180] | 19% | 36% | 71%
11 | O=C(O)C(=O)N(Cc1ccc(O)cc1)c1ccc(-c2ccc(OC(F)(F)F)cc2)cc1 [Compound 181] | 10% | 11% | 31%
12 | O=C(O)C(=O)N(Cc1ccc(OC(F)(F)F)cc1)c1ccc(-c2ccccc2)cc1 [Compound 183] | – | 11% | 29%
13 | CCCCCOc1ccc(-c2ccc(OC(F)(F)F)cc2)cc1N(Cc1ccccc1)C(=O)C(=O)O [Compound 195] | 77% | 94% | 93%

Other lines, results leading:

Row | Inhibition Rate of PAI-1 Activity (%) (Compound Concentration 5 μM) | Inhibition Rate of PAI-1 Activity (%) (Compound Concentration 10 μM) | Inhibition Rate of PAI-1 Activity (%) (Compound Concentration 25 μM) | SMILES
14 | 26% | 61% | >99% | CC(C)(C)c1ccc(N(C(=O)C(=O)O)c2cccc(-c3ccc(OC(F)(F)F)cc3)c2)cc1 [Compound 158]
15 | 21% | 45% | 92% | O=C(O)C(=O)N(Cc1ccc(OC(F)(F)F)cc1)c1ccc(-c2ccc(OC(F)(F)F)cc2)cc1 [Compound 159]
16 | 30% | 74% | >99% | CC(C)(C)c1ccc(-c2ccc(N(Cc3ccc(OC(F)(F)F)cc3)C(=O)C(=O)O)cc2)cc1 [Compound 162]
17 | 27% | 64% | 96% | CC(C)(C)c1ccc(N(C(=O)C(=O)O)c2ccc(Oc3ccc(OC(F)(F)F)cc3)cc2)cc1 [Compound 165]
18 | 44% | 79% | 84% | CC(C)(C)c1ccc(CN(C(=O)C(=O)O)c2ccc(-c3ccc(OC(F)(F)F)cc3)c(C(F)(F)F)c2)cc1 [Compound 166]
19 | 59% | 91% | 84% | CC(C)(C)c1ccc(CN(C(=O)C(=O)O)c2ccc(C(F)(F)F)cc2-c2ccc(OC(F)(F)F)cc2)cc1 [Compound 169]
20 | 38% | 73% | 94% | CC(C)(C)c1ccc(N(C(=O)C(=O)O)c2cccc(Oc3ccc(OC(F)(F)F)cc3)c2)cc1 [Compound 170]
21 | 63% | 95% | 90% | CC(C)(C)c1ccc(CN(C(=O)C(=O)O)c2c(Cl)cc(-c3ccc(OC(F)(F)F)cc3)cc2Cl)cc1 [Compound 173]
22 | 66% | 94% | 87% | CC(C)(C)c1ccc(CN(C(=O)C(=O)O)c2cc(Oc3ccc(OC(F)(F)F)cc3)cc(C(F)(F)F)c2)cc1 [Compound 175]
23 | 43% | 83% | 91% | Cc1c(-c2ccc(OC(F)(F)F)cc2)cccc1N(Cc1ccc(C(C)(C)C)cc1)C(=O)C(=O)O [Compound 177]
24 | 56% | 88% | 88% | Cc1cc(-c2ccc(OC(F)(F)F)cc2)cc(N(Cc2ccc(C(C)(C)C)cc2)C(=O)C(=O)O)c1 [Compound 178]
25 | 56% | 85% | 89% | COc1ccc(-c2ccc(OC(F)(F)F)cc2)cc1N(Cc1ccc(C(C)(C)C)cc1)C(=O)C(=O)O [Compound 182]
26 | 59% | 86% | 85% | Cc1cc(N(Cc2ccc(C(C)(C)C)cc2)C(=O)C(=O)O)ccc1-c1ccc(OC(F)(F)F)cc1 [Compound 184]
27 | 75% | 92% | 88% | Cc1ccc(N(Cc2ccc(C(C)(C)C)cc2)C(=O)C(=O)O)cc1Oc1ccc(OC(F)(F)F)cc1 [Compound 187]
28 | 74% | 92% | 87% | CC(C)(C)c1ccc(CN(C(=O)C(=O)O)c2ccc(Cl)cc2Oc2ccc(OC(F)(F)F)cc2)cc1 [Compound 191]
29 | 18% | 35% | 64% | CC(C)(C)c1ccc(CN(C(=O)C(=O)O)c2ccc(-c3ccc(OC(F)(F)F)cc3)c(CCC(=O)O)c2)cc1 [Compound 196]
30 | 64% | 89% | 92% | CC(C)(C)c1ccc(CN(C(=O)C(=O)O)c2ccc(-c3cccc(OC(F)(F)F)c3)cc2)cc1 [Compound 200]
31 | 64% | 89% | 82% | CC(C)(C)c1ccc(CN(C(=O)C(=O)O)c2ccc(-c3ccccc3OC(F)(F)F)cc2)cc1 [Compound 201]

Source: patent US8633245B2, “PAI-1 inhibitor” (Institute of Medicinal Molecular Design, Inc., priority 2008, dated 2014)
